Assay results taken from ChEMBL document CHEMBL5108023, “Design, synthesis and biological evaluation of rhein-piperazine-dithiocarbamate hybrids as potential anticancer agents” (Eur J Med Chem, 2022).
In brackets after ≈: the same amount, converted by molar mass.

Columns and labels:
[1] = Selectivity index, ratio IC50 for antiproliferative activity against human WI-38 cells over IC50 for antiproliferative activity against human A549 cells; assay type: toxicity, cell-based; details: WI-38 cells and A549 cells, read-out: Ratio IC50
A549 = test: cells; details: Homo sapiens, A549, 48 h
WI-38 = test: Antiproliferative activity against human WI-38 cells measured after 48 hrs by MTT assay; assay type: functional, cell-based; details: WI-38, 48 h
PC-9 [2] = test: Induction of apoptosis in human PC-9 cells assessed as total apoptotic cells at 10 ug/ml measured after 48 hrs by AnnexinV-FITC/PI staining based flow cytometry (reference value: 6.99%); assay type: functional; details: dose 10 µg/ml
[3] = Acute toxicity in female ICR mouse assessed as pathological changes in spleen at 6.25 to 50 mg/kg measured by H and E staining method; assay type: organism-based; details: in vivo, dose 6.25-50 mg/kg
HeLa = test: Antiproliferative activity against human HeLa cells measured after 48 hrs by MTT assay; assay type: functional, cell-based
786-0 = test: Antiproliferative activity against human 786-0 cells measured after 48 hrs by MTT assay; assay type: functional, cell-based; details: 786-0, 48 h
SK-OV-3 = test: Antiproliferative activity against human SK-OV-3 cells measured after 48 hrs by MTT assay; assay type: functional, cell-based; details: SK-OV-3, 48 h
[4] = Acute toxicity in female ICR mouse assessed as pathological changes in intestine at 6.25 to 50 mg/kg measured by H and E staining method; assay type: organism-based; details: in vivo, dose 6.25-50 mg/kg
[5] = Acute toxicity in female ICR mouse assessed as changes in ALT level in liver at 6.25 to 50 mg/kg; assay type: organism-based; details: in vivo, dose 6.25-50 mg/kg
PC-9 [6] = test: Induction of apoptosis in human PC-9 cells assessed as total apoptotic cells at 100 ug/ml measured after 48 hrs by AnnexinV-FITC/PI staining based flow cytometry (reference value: 6.99%); assay type: functional; details: dose 100 µg/ml
[7] = Acute toxicity in female ICR mouse assessed as pathological changes in lung at 6.25 to 50 mg/kg measured by H and E staining method; assay type: organism-based; details: in vivo, dose 6.25-50 mg/kg
PC-9 [8] = test: Induction of apoptosis in human PC-9 cells assessed as total apoptotic cells at 3 ug/ml measured after 48 hrs by AnnexinV-FITC/PI staining based flow cytometry (reference value: 6.99%); assay type: functional; details: dose 3 µg/ml
[9] = Acute toxicity in female ICR mouse assessed as changes in AST level in liver at 6.25 to 50 mg/kg; assay type: organism-based; details: in vivo, dose 6.25-50 mg/kg
[10] = Acute toxicity in female ICR mouse assessed as pathological changes in heart at 6.25 to 50 mg/kg measured by H and E staining method; assay type: organism-based; details: in vivo, dose 6.25-50 mg/kg
[11] = Acute toxicity in female ICR mouse assessed as pathological changes in kidney at 6.25 to 50 mg/kg measured by H and E staining method; assay type: organism-based; details: in vivo, dose 6.25-50 mg/kg
HCT-116 = test: Antiproliferative activity against human HCT-116 cells measured after 48 hrs by MTT assay; assay type: functional, cell-based; details: HCT-116, 48 h
PC-9 [12] = test: Antiproliferative activity against human PC-9 cells measured after 48 hrs by MTT assay; assay type: functional, cell-based; details: PC-9, 48 h
NCI-H460 = test: Antiproliferative activity against human NCI-H460 cells measured after 48 hrs by MTT assay; assay type: functional, cell-based; details: NCI-H460, 48 h
[13] = Acute toxicity in female ICR mouse assessed as pathological changes in liver at 6.25 to 50 mg/kg measured by H and E staining method; assay type: organism-based; details: in vivo, dose 6.25-50 mg/kg
SK-BR-3 = test: Antiproliferative activity against human SK-BR-3 cells measured after 48 hrs by MTT assay; assay type: functional, cell-based; details: SK-BR-3, 48 h
Huh-7 = test: Antiproliferative activity against human Huh-7 cells measured after 48 hrs by MTT assay; assay type: functional, cell-based; details: Huh-7, 48 h
[14] = Acute toxicity in female ICR mouse assessed as changes in creatine kinase (CK) level in heart at 6.25 to 50 mg/kg; assay type: organism-based; details: in vivo, dose 6.25-50 mg/kg
Calu-1 = test: Antiproliferative activity against human Calu-1 cells measured after 48 hrs by MTT assay; assay type: functional, cell-based; details: Calu-1, 48 h
[15] = Acute toxicity in female ICR mouse assessed as changes in creatine kinase (CK) level in heart at 25 mg/kg; assay type: organism-based; details: in vivo
[16] = Acute toxicity in female ICR mouse assessed as pathological changes in intestine at 25 mg/kg measured by H and E staining method; assay type: organism-based; details: in vivo
[17] = Acute toxicity in female ICR mouse assessed as pathological changes in spleen at 25 mg/kg measured by H and E staining method; assay type: organism-based; details: in vivo
[18] = Acute toxicity in female ICR mouse assessed as pathological changes in liver at 25 mg/kg measured by H and E staining method; assay type: organism-based; details: in vivo
[19] = Acute toxicity in female ICR mouse assessed as pathological changes in lung at 25 mg/kg measured by H and E staining method; assay type: organism-based; details: in vivo
[20] = Acute toxicity in female ICR mouse assessed as changes in ALT level in liver at 25 mg/kg; assay type: organism-based; details: in vivo
[21] = Acute toxicity in female ICR mouse assessed as pathological changes in kidney at 25 mg/kg measured by H and E staining method; assay type: organism-based; details: in vivo
[22] = Acute toxicity in female ICR mouse assessed as changes in AST level in liver at 25 mg/kg; assay type: organism-based; details: in vivo
[23] = Acute toxicity in female ICR mouse assessed as pathological changes in heart at 25 mg/kg measured by H and E staining method; assay type: organism-based; details: in vivo

## O=C1c2cccc(O)c2C(=O)c2c(O)cc(C(=O)N3CCN(C(=S)SCc4ccc(F)cc4)CC3)cc21
[1]
  selectivity ratio: 3
A549
  IC50: 36.4 µg/mL (≈ 67.8 µM)
WI-38
  IC50: > 100 µg/mL

## O=C1c2cccc(O)c2C(=O)c2c(O)cc(C(=O)N3CCN(C(=S)SCc4ccc(Cl)cc4)CC3)cc21
A549
  IC50: > 100 µg/mL
WI-38
  IC50: 72.5 µg/mL (≈ 131 µM)

## COC(=O)CSC(=S)N1CCN(C(=O)c2cc(O)c3c(c2)C(=O)c2cccc(O)c2C3=O)CC1
[1]
  selectivity ratio: 2
A549
  IC50: 31 µg/mL (≈ 61.9 µM)
WI-38
  IC50: 67 µg/mL (≈ 134 µM)

## O=C1c2cccc(O)c2C(=O)c2c(O)cc(C(=O)N3CCN(C(=S)SCCCOc4ccccc4)CC3)cc21
[1]
  selectivity ratio: 1
A549
  IC50: > 100 µg/mL
WI-38
  IC50: > 100 µg/mL

## O=C(CSC(=S)N1CCN(C(=O)c2cc(O)c3c(c2)C(=O)c2cccc(O)c2C3=O)CC1)OCc1ccccc1
[1]
  selectivity ratio: 3
A549
  IC50: 29.8 µg/mL (≈ 51.7 µM)
WI-38
  IC50: > 100 µg/mL

## CCOC(=O)CCCSC(=S)N1CCN(C(=O)c2cc(O)c3c(c2)C(=O)c2cccc(O)c2C3=O)CC1
PC-9 [2]
  Activity: 28.97%
[3]
  Activity: Non-Toxic
[1]
  selectivity ratio: 5
HeLa
  IC50: 30.6 µg/mL (≈ 56.4 µM)
A549
  IC50: 10.9 µg/mL (≈ 20.1 µM)
786-0
  IC50: 30.1 µg/mL (≈ 55.6 µM)
SK-OV-3
  IC50: 35.5 µg/mL (≈ 65.4 µM)
[4]
  Activity: Non-Toxic
[5]
  Activity: Non-Toxic
PC-9 [6]
  Activity: 47.06%
[7]
  Activity: Non-Toxic
PC-9 [8]
  Activity: 13.22%
[9]
  Activity: Non-Toxic
[10]
  Activity: Non-Toxic
[11]
  Activity: Non-Toxic
HCT-116
  IC50: 25.9 µg/mL (≈ 47.7 µM)
PC-9 [12]
  IC50: 10.8 µg/mL (≈ 19.9 µM)
NCI-H460
  IC50: 23 µg/mL (≈ 42.4 µM)
[13]
  Activity: Non-Toxic
WI-38
  IC50: 55.3 µg/mL (≈ 102 µM)
SK-BR-3
  IC50: 52 µg/mL (≈ 95.8 µM)
Huh-7
  IC50: 23.8 µg/mL (≈ 44 µM)
[14]
  Activity: Non-Toxic
Calu-1
  IC50: 23.8 µg/mL (≈ 43.8 µM)

## C=CCSC(=S)N1CCN(C(=O)c2cc(O)c3c(c2)C(=O)c2cccc(O)c2C3=O)CC1
[1]
  selectivity ratio: 3
A549
  IC50: 40.5 µg/mL (≈ 86.5 µM)
WI-38
  IC50: > 100 µg/mL

## Cc1ccc(CSC(=S)N2CCN(C(=O)c3cc(O)c4c(c3)C(=O)c3cccc(O)c3C4=O)CC2)cc1
[1]
  selectivity ratio: 1
A549
  IC50: > 100 µg/mL
WI-38
  IC50: > 100 µg/mL

## O=C1c2cccc(O)c2C(=O)c2c(O)cc(C(=O)N3CCN(C(=S)SCc4ccccc4)CC3)cc21
[1]
  selectivity ratio: 1
A549
  IC50: 78.6 µg/mL (≈ 152 µM)
WI-38
  IC50: 48.8 µg/mL (≈ 94 µM)

## O=C1c2cccc(O)c2C(=O)c2c(O)cc(C(=O)N3CCN(C(=S)SCc4ccc(C(F)(F)F)cc4)CC3)cc21
[1]
  selectivity ratio: 1
A549
  IC50: > 100 µg/mL
WI-38
  IC50: > 100 µg/mL

## Nc1ccn([C@@H]2O[C@H](CO)[C@@H](O)[C@@H]2O)c(=O)n1 [CYTARABINE]
[1]
  selectivity ratio: 2
A549
  IC50: 49.3 µg/mL (≈ 203 µM)
WI-38
  IC50: > 100 µg/mL

## COc1cccc2c1C(=O)c1c(O)c3c(c(O)c1C2=O)C[C@@](O)(C(=O)CO)C[C@@H]3O[C@H]1C[C@H](N)[C@H](O)[C@H](C)O1 [DOXORUBICIN]
A549
  IC50: 0.665 µg/mL (≈ 1.22 µM)
WI-38
  IC50: 0.079 µg/mL (≈ 0.145 µM)

## O=C(O)c1cc(O)c2c(c1)C(=O)c1cccc(O)c1C2=O [RHEIN]
[15]
  Activity: Non-Toxic
[1]
  selectivity ratio: 1
[16]
  Activity: Non-Toxic
A549
  IC50: 77.1 µg/mL (≈ 271 µM)
[17]
  Activity: Non-Toxic
[18]
  Activity: Non-Toxic
[19]
  Activity: Non-Toxic
[20]
  Activity: Non-Toxic
WI-38
  IC50: 92.3 µg/mL (≈ 325 µM)
[21]
  Activity: Non-Toxic
[22]
  Activity: Non-Toxic
[23]
  Activity: Non-Toxic
